Measured values as given in ChEMBL document CHEMBL4483862, “Open-source discovery of chemical leads for next-generation chemoprotective antimalarials” (2018).
pIC50: −log10 of the molar value.

Test system: Plasmodium berghei
Test: Luciferase/luciferin-expressing antifolate-resistant parasites were used to infect a culture of HepG2 cells that were pre-incubated with compounds. Infected hepatocytes emit light due to the luciferase reaction. Assay results are presented as the percent inhibition of light emission compared to control. […]
Format: functional
Conditions: sporozoite; for IC90: read-out: LUCIFERASE INFECTION ASSAY - IC90
[1] = read-out: LUCIFERASE INFECTION ASSAY - IC50

SMILES | IC90 [µM] | pIC50 [1] | further results
COc1ccc(Nc2ccn3ncc(-c4ccc(N(C)C)cc4)c3n2)cn1 | 5.31 |  | pIC50 (HEPG2TOX_HILL_SLOPE 7.66, HEPG2TOX_R_SQUARED 0.327, PBLUC_HILL_SLOPE 65.7, PBLUC_R_SQUARED 0.275, read-out: LUCIFERASE INFECTION ASSAY - IC50): 5.29
C=CCN(c1ccccc1)S(=O)(=O)c1cccc(C(=O)Nc2ccnn2C(C)C2CC2)c1 (configuration not stated) | > 10 |  | pIC50 (HEPG2TOX_HILL_SLOPE 0.485, HEPG2TOX_R_SQUARED 0.701, PBLUC_HILL_SLOPE 1.26, PBLUC_R_SQUARED 0.254, read-out: LUCIFERASE INFECTION ASSAY - IC50): < 5.00
CC(=O)Oc1cc2sc(=O)oc2c2ccccc12 | > 12.7 | < 4.90 | 
CC(NC(=O)NCc1ccccc1)c1ccc2ccccc2c1 (configuration not stated) | > 10 | < 5.00 | 
CCCCC(CC)Cn1c(SCc2nc(N)nc(N)n2)nnc1-c1ccc(Cl)cc1 (configuration not stated) | > 10 | < 5.00 | 
Cc1ccc(C)c(Sc2ccc(S(=O)(=O)NCCN(C)C)cc2)c1 | > 10 | < 5.00 | 
COc1cc(OC)cc(-c2cn3c(-c4ccc5ncccc5c4)cnc3cn2)c1 | 6.15 |  | pIC50 (HEPG2TOX_HILL_SLOPE 2.4, HEPG2TOX_R_SQUARED 0.938, PBLUC_HILL_SLOPE 4.1, PBLUC_R_SQUARED 0.34, read-out: LUCIFERASE INFECTION ASSAY - IC50): 5.44
O=C(C1CCC1)N1CCN(Cc2ccc(-c3ccc(Cl)cc3)s2)CC1 | > 10 |  | pIC50 (HEPG2TOX_HILL_SLOPE 1.83, HEPG2TOX_R_SQUARED 0.819, PBLUC_HILL_SLOPE 1.76, PBLUC_R_SQUARED 0.701, read-out: LUCIFERASE INFECTION ASSAY - IC50): 5.38
CCN(c1ccccc1)S(=O)(=O)c1ccc(Cl)c(NC(=O)C2(c3ccc(Cl)cc3)CCCC2)c1 | > 10 | < 5.00 | 
CC1CC(C)CN(Cc2ccccc2CNC(=O)Nc2nnc(C3CC3)s2)C1 (configuration not stated) | > 10 |  | pIC50 (HEPG2TOX_HILL_SLOPE 1.87, HEPG2TOX_R_SQUARED 0.778, PBLUC_HILL_SLOPE 3.71, PBLUC_R_SQUARED 0.683, read-out: LUCIFERASE INFECTION ASSAY - IC50): 5.19
Cc1c(Cl)cc(NC(=O)Nc2ccccc2)c(O)c1Cl | > 10.6 |  | pIC50 (PBLUC_HILL_SLOPE 11.8, PBLUC_R_SQUARED 0.519, read-out: LUCIFERASE INFECTION ASSAY - IC50): 5.01
O=c1c2c(-c3ccccc3)csc2nc2n1CC/C2=C\c1cccc(C(F)(F)F)c1 | > 10 |  | pIC50 (FFLUC_HILL_SLOPE 50.3, FFLUC_R_SQUARED 0.583, read-out: LUCIFERASE INFECTION ASSAY - IC50): < 5.00
CCCn1c(NC(=O)c2c(C)nn(Cc3ccccc3)c2Cl)nc2ccccc21 | > 10 |  | pIC50 (HEPG2TOX_HILL_SLOPE 8.06, 7.61, HEPG2TOX_R_SQUARED 0.217, 0.871, PBLUC_HILL_SLOPE 3.35, PBLUC_R_SQUARED 0.605, read-out: LUCIFERASE INFECTION ASSAY - IC50): 5.25
CCOC(=O)c1c(C)oc(-c2ccc(Cl)cc2)c1S(=O)(=O)Nc1cccc(C)c1 | > 7.61 |  | pIC50 (HEPG2TOX_HILL_SLOPE 7.66, HEPG2TOX_R_SQUARED 0.177, read-out: LUCIFERASE INFECTION ASSAY - IC50): < 5.12
Cc1nc2ccccn2c1-c1nc(CCC2CCCCC2)c(C(=O)c2c(C)[nH]c3ccccc23)s1 | > 10 |  | pIC50 (PBLUC_HILL_SLOPE 8.8, PBLUC_R_SQUARED 0.142, read-out: LUCIFERASE INFECTION ASSAY - IC50): 5.06
CN(CCOc1ccccc1)C(=O)c1ccc(Cl)c(S(=O)(=O)N(Cc2ccccc2)c2ccccc2)c1 | > 10 |  | pIC50 (HEPG2TOX_HILL_SLOPE 5.5, HEPG2TOX_R_SQUARED 0.0292, PBLUC_HILL_SLOPE 16, PBLUC_R_SQUARED 0.261, read-out: LUCIFERASE INFECTION ASSAY - IC50): 5.02
COC(=O)c1cccnc1Nc1ccc(NS(=O)(=O)c2ccc(F)c(F)c2)cc1 | > 10 | < 5.00 | 
Cc1c(C(=O)OCc2ccccc2C(F)(F)F)sc2ncn(C)c(=O)c12 | > 10 | 5.08 | 
O=C1c2cccnc2C(=O)N1Cc1ccc2c(c1)OCO2 | > 11.7 | < 4.93 | 
Cc1cccc(N2CCN(C(=O)c3ccc4[nH]c(C)c(C)c4c3)CC2)c1C | 1.14 |  | pIC50 (FFLUC_HILL_SLOPE 18.8, FFLUC_R_SQUARED 0.39, HEPG2TOX_HILL_SLOPE 1.29, HEPG2TOX_R_SQUARED 0.937, PBLUC_HILL_SLOPE 10.9, PBLUC_R_SQUARED 0.355, read-out: LUCIFERASE INFECTION ASSAY - IC50): 6.03
CCN(CC)c1ccc(/C=C(\C#N)C(=O)Nc2cccc(S(=O)(=O)N3CCCCC3)c2)cc1 | > 10 |  | pIC50 (HEPG2TOX_HILL_SLOPE 7.51, HEPG2TOX_R_SQUARED 0.401, PBLUC_HILL_SLOPE 2.56, PBLUC_R_SQUARED 0.302, read-out: LUCIFERASE INFECTION ASSAY - IC50): 5.03

SMILES | IC90 [µM] | pIC50 [1] | further results
FC(F)(F)c1cc(Nc2nc(C(F)(F)F)cs2)cc(C(F)(F)F)c1 | 3.63 |  | pIC50 (HEPG2TOX_HILL_SLOPE 11.5, HEPG2TOX_R_SQUARED 0.969, PBLUC_HILL_SLOPE 12.1, PBLUC_R_SQUARED 0.577, read-out: LUCIFERASE INFECTION ASSAY - IC50): 5.52
COc1ccc(Nc2nccc3[nH]c(-c4cccc(F)c4)cc23)cc1 | 3.55 |  | pIC50 (HEPG2TOX_HILL_SLOPE 10.4, HEPG2TOX_R_SQUARED 0.0549, PBLUC_HILL_SLOPE 2.88, PBLUC_R_SQUARED 0.623, read-out: LUCIFERASE INFECTION ASSAY - IC50): 5.78
O=C(CC1(C(F)(F)F)OCCO1)Nc1ccc(C(OC(=O)c2ccc(F)cc2)(C(F)(F)F)C(F)(F)F)cc1 | > 10 | < 5.00 | 
CSc1nccc(-c2ccc(S(=O)(=O)N3CCCCC3)s2)n1 | > 9.28 | < 5.03 | 
CCc1cccc(CC)c1N1C(=O)C=CC1=O | 5.85 |  | pIC50 (FFLUC_HILL_SLOPE 12.6, FFLUC_R_SQUARED 0.68, HEPG2TOX_HILL_SLOPE 16.7, HEPG2TOX_R_SQUARED 0.936, PBLUC_HILL_SLOPE 11.7, PBLUC_R_SQUARED 0.538, read-out: LUCIFERASE INFECTION ASSAY - IC50): 5.31
Cc1cc(C)n(-c2nc(-c3ccccc3)cc(N3CCCCCC3)n2)n1 | 7.45 |  | pIC50 (PBLUC_HILL_SLOPE 3.96, PBLUC_R_SQUARED 0.269, read-out: LUCIFERASE INFECTION ASSAY - IC50): 5.37
CCOC(=O)c1c(S(=O)(=O)Nc2ccc([N+](=O)[O-])cc2)c(-c2ccccc2)n(-c2ccccc2)c1C | > 6.53 |  | pIC50 (HEPG2TOX_HILL_SLOPE 0.2, HEPG2TOX_R_SQUARED 0.0818, PBLUC_HILL_SLOPE 2.97, PBLUC_R_SQUARED 0.542, read-out: LUCIFERASE INFECTION ASSAY - IC50): < 5.19
CN(C)c1ccc(C(c2ccc(N(C)C)cc2)c2ccc(Cl)c(Cl)c2)cc1 | > 8.26 |  | pIC50 (PBLUC_HILL_SLOPE 0.805, PBLUC_R_SQUARED 0.379, read-out: LUCIFERASE INFECTION ASSAY - IC50): 5.41
CC(C)CC(N)c1csc(NC(=O)Nc2ccc(OC(F)(F)F)cc2)n1 (configuration not stated) | 5.1 |  | pIC50 (PBLUC_HILL_SLOPE 53.9, PBLUC_R_SQUARED 0.0664, read-out: LUCIFERASE INFECTION ASSAY - IC50): 5.31
C(=C\c1cn2c(-c3cccnc3)cnc2cn1)/c1ccccc1 | > 11.1 |  | pIC50 (HEPG2TOX_HILL_SLOPE 0.303, HEPG2TOX_R_SQUARED 0.424, PBLUC_HILL_SLOPE 9.4, PBLUC_R_SQUARED 0.254, read-out: LUCIFERASE INFECTION ASSAY - IC50): 5.05
O=C(Nc1ccc(Nc2ccccc2)cc1)c1[nH]nc2ccccc12 | > 10 |  | pIC50 (PBLUC_HILL_SLOPE 16, PBLUC_R_SQUARED 0.594, read-out: LUCIFERASE INFECTION ASSAY - IC50): 5.05
O=[N+]([O-])c1ccc(-c2nnc(SCc3c(Cl)cccc3Cl)o2)o1 | 8.84 |  | pIC50 (HEPG2TOX_HILL_SLOPE 11.4, HEPG2TOX_R_SQUARED 0.952, PBLUC_HILL_SLOPE 3.38, PBLUC_R_SQUARED 0.564, read-out: LUCIFERASE INFECTION ASSAY - IC50): 5.34
Clc1ccc(-c2cn3c(-c4ccc5c(c4)OCO5)cnc3cn2)cc1 | 6.85 |  | pIC50 (HEPG2TOX_HILL_SLOPE 1.51, HEPG2TOX_R_SQUARED 0.989, PBLUC_HILL_SLOPE 1.79, PBLUC_R_SQUARED 0.647, read-out: LUCIFERASE INFECTION ASSAY - IC50): 5.70
O=C(c1cc(C2=NNC(=Nc3ccc(Cl)cc3)SC2)c[nH]1)N1CCCC1 | > 10 |  | pIC50 (PBLUC_HILL_SLOPE 2.6, PBLUC_R_SQUARED 0.441, read-out: LUCIFERASE INFECTION ASSAY - IC50): 5.26
Cc1ccc(NC(=O)NC(=O)CSc2nccn2Cc2ccccc2)c(C)c1 | > 10 |  | pIC50 (FFLUC_HILL_SLOPE 2.79, FFLUC_R_SQUARED 0.544, read-out: LUCIFERASE INFECTION ASSAY - IC50): < 5.00
COC(=O)c1scc(S(=O)(=O)Cc2ccco2)c1N/N=C(\C#N)S(=O)(=O)C(C)C | > 7.18 | < 5.14 | 
Cc1ccccc1CN1CCN(c2cc(=O)n3ccccc3n2)CC1 | > 10 | 5.19 | 
CC(C)c1nc(NCC2CCCO2)c(C#N)c2c1CCCC2 (configuration not stated) | > 11 |  | pIC50 (PBLUC_HILL_SLOPE 0.297, PBLUC_R_SQUARED 0.0572, read-out: LUCIFERASE INFECTION ASSAY - IC50): < 4.96
Cc1ccc2c(CC(=O)Nc3sccc3C(N)=O)coc2c1 | > 10 | < 5.00 | 
CN1c2ccccc2C(C)(C)C12C=Cc1c(ccc3oc4c(c13)CCCC4)O2 (configuration not stated) | > 10 |  | pIC50 (PBLUC_HILL_SLOPE 2.26, PBLUC_R_SQUARED 0.401, read-out: LUCIFERASE INFECTION ASSAY - IC50): 5.08
